The record followed here is patent publication US7384943B2, “Substituted chroman derivatives” (AstraZeneca AB, priority 1997, dated 2008).

Each structure is given as a SMILES string. Some results are limits rather than exact numbers.

For the molecule `CN1CCN(c2cccc3c2C[C@H](NC(=O)c2ccc(N4CCOCC4)cc2)CO3)CC1` [Example 14, (S)-N-[5-(4-Methylpiperazin-1-yl)-3,4-dihydro-2H-1-benzopyran-3-yl]-4-morpholinobenzamide], the melting point – broadly, the temperature of the solid-liquid transition – is 210 to 212 °C.
The molecule `CN1CCN(c2cccc3c2C[C@H](NC(=O)c2ccc(C(F)(F)F)cc2)CO3)CC1` [Example 19, (S)-N-[5-(4-Methylpiperazin-1-yl)-3,4-dihydro-2H-1-benzopyran-3-yl]-4-trifluoromethylbenzamide] came in with a melting point of 212 to 214 °C.
The figure for `CN1CCN(c2cccc3c2C[C@H](NC(=O)c2ccc(C(F)(F)F)cc2C(F)(F)F)CO3)CC1` [Example 28, (S)-N-[5-(4-Methylpiperazin-1-yl)-3,4-dihydro-2H-1-benzopyran-3-yl]-2,4-bis(trifluoromethyl)benzamide] is 202 to 203 °C.
Consider `CN1CCN(c2cccc3c2C[C@H](NC(=O)c2ccc(N4CCNC(=O)CC4)cc2)CO3)CC1` [Example 35, (S)-N-[5-(4-Methylpiperazin-1-yl)-3,4-dihydro-2H-1-benzopyran-3-yl]-4-(hexa hydro-1,4-diazepin-5-on-1-yl)benzamide], for which the melting point was 244 to 247 °C (dec.).
The figure for `CN1CCN(c2cccc3c2C[C@H](NC(=O)c2ccc(N4CCNCC4)cc2)CO3)CC1` [Example 43, (S)-N-[5-(4-Methylpiperazin-1-yl)-3,4 dihydro-2H-1-benzopyran-3-yl]-4-(piperazin-1-yl)benzamide] is above 102 °C.
The figure for `CC(=O)N1CCN(c2ccc(C(=O)N[C@@H]3COc4cccc(N5CCN(C)CC5)c4C3)cc2)CC1` [Example 44, (S)-N-[5-(4-Methylpiperazin-1-yl)-3,4 dihydro-2H-1-benzopyran-3-yl]-4-(4-acetylpiperazin-1-yl)benzamide] is 88 °C (dec.); for `CN1CCN(c2cccc3c2C[C@H](NC(=O)c2ccc(C(=O)N4CCOCC4)cc2)CO3)CC1` [Example 45, (S)-N-[5-(4-Methylpiperazin-1-yl)-3,4 dihydro-2H-1-benzopyran-3-yl)-4-(morpholinocarbonyl)benzamide] it is 222 °C (dec.).
Turning to `CN1CCN(c2cccc3c2C[C@H](NC(=O)c2ccc(C(=O)N(C)C)cc2)CO3)CC1` [Example 46, (S)-N-[5-(4-Methylpiperazin-1-yl)-3,4-dihydro-2H-benzopyran-3-yl)-4-(N,N-dimethylaminocarbonyl)benzamide], the melting point was 219 °C (dec.).
For `CN1CCN(c2cccc3c2C[C@H](NC(=O)c2ccc(N4CCN(CCO)CC4)cc2)CO3)CC1` [Example 48, (S)-N-[5-(4-Methylpiperazin-1-yl)-3,4 dihydro-2H-1-benzopyran-3-yl]-4-[4-(2-hydroxyethyl)-piperazin-1-yl]benzamide], the melting point was in the range of 211 to 212 °C.
